The numbers were not newly measured in paper PMC12211128, “Safety, tolerability, pharmacokinetic and pharmacodynamic effects of the muscarinic M1 positive allosteric modulator VU0467319 for Alzheimer’s disease: a single ascending-dose study in healthy participants” (Alzheimer's Research & Therapy, 2025), which cites them from elsewhere.

In data set [1] the test system is M1 mAChR. As to conditions: cited from earlier work.
Data set [2] relates to Parkinson's disease. More on the design: method as in PMID 39761063. As to conditions: cited from earlier work.

On to `COc1ccc(Cn2cc(C(=O)O)c(=O)c3ccccc32)cc1` [BQCA, benzyl quinolone carboxylic acid, reference compound], for which the “agonist and PAM properties at M1” value in data set [1] is “both agonist and PAM properties”.

Consider `Cc1c(Cc2ccc(-n3cccn3)cc2)cc2c(c1F)CN([C@H]1COCC[C@@H]1O)C2=O` [TAK-071], for which the “cognitive performance in Parkinson's disease” value in data set [2] is given as “produced improvement in cognitive performance”.
